Measured values: patent US11369607B2, “Compositions, systems, and methods for generating inner ear hair cells for treatment of hearing loss” (Massachusetts Institute of Technology, priority 2014, dated 2022)
Entries after “also recorded” stand apart in the source; their conditions may differ.

Key:
[1] = system: Lgr5+ supporting cells isolated from the cochlea; assay: Expansion of Lgr5-GFP inner ear progenitor cells in Matrigel based 3D culture; type: cell-based, mouse; settings: for Lgr5-GFP expression, effect of addition / cell proliferation, effect of addition: neonatal Lgr5 inner ear progenitor cells; for use in place of VPA: data not shown; for importance of the factor for cell proliferation / importance of the factor for Lgr5-GFP expression: factor removed from the culture medium; for GFP+ cell number / total number of cells / GFP+ percentage: named factor removed from EFICVP6, 10 days
Protocol: Cell culture: Heterozygous Lgr5-EGFP-IRES-CreERT2 mice were obtained from Jackson Labs, and neonatal P2-P5 mice were used for cell isolation. Organ of Corti was isolated from Lgr5-GFP mice and further dissociated into single cells using trypsin. Cells were then cultured as previously described (Yin et al, 2014). Briefly, cells were entrapped in Matrigel and plated at the center of wells in a 24-well plate. Following polymerization of Matrigel, 500 μl of culture media (Advanced DMEM/F12 with N2 and B27) was added, containing growth factors including EGF (50 ng/ml) (epidermal growth factor), bFGF (20 ng/ml) (fibroblast growth factor), and IGF1 (50 ng/ml) (insulin-like growth factor 1), and small molecules including CHIR99021 (5 μM), valproic acid (1 mM), 2-phospho-L-ascorbic acid (280 μM), and 616452 (2 μM). Y-27632 (10 μM) was added for the first 2 days. In some experiments, bFGF was used at 50 ng/ml.
For single cell isolation, the organs of Corti were then treated with Cell Recovery Solution (Corning) for 1 h to separate cochlear epithelium from the underlying mesenchyme. Epithelia were then collected and treated with Trypsin (Life Technologies) for 15-20 minutes at 37° C. Single cells obtained by mechanical trituration were filtered by cell strainer (40 μm) and washed with cell culture media. For FACS sorting of Lgr5-high and Lgr5-Low cells, FACS ARIA (BD) was used and Lgr5-GFP was used as indicator of Lgr5 level. Sorted single cells were cultured in Matrigel in inner ear cell culture media with supplement growth factors and small molecules. Y-27632 was added in the first 2 days.
FACS analysis: Cell culture media was removed and Trypsin was added. After incubation at 37° C. for 10-20 min, colonies were dissociated into single cells. Live-cell number were counted using a hemocytometer and trypan blue staining. The cells were then stained with propidium iodide (PI) and analyzed with flow cytometry. The number of GFP-positive cells was calculated by multiplying the total number of cells by the percentage of GFP-positive cells.

patients = settings: cited from earlier work
[2] = system: expanded Lgr5-positive cells; assay: Differentiation of expanded Lgr5-positive cells to hair cells; type: cell-based, mouse; settings: for effect on differentiation of hair cells: in differentiation media
Protocol: Differentiation protocol: For differentiation of expanded Lgr5-positive cells, following 10 days of culture in the cell expansion condition (EFICVP6), the cell colonies were transferred to fresh Matrigel and further cultured in differentiation media. Differentiation media contains Notch pathway inhibitor (e.g. DAPT, D, 5 μM, or LY411575, LY, 5 μM), with or without Gsk3β inhibitor (e.g. CHIR99021). Media were changed every other day. Following another 6-10 days of incubation with differentiation media, the colonies were harvested for qPCR analysis or fixed with 4% PFA and immunostained with hair cell markers Myo7a and Prestin.
RNA extraction and quantitative real-time PCR (qPCR): RNA was isolated from cultured cells (RNeasy Mini Kit; Qiagen) according to the manufacturer's protocol. Quantitative real-time PCR was performed with QuantiTect Probe PCR kit (Qiagen) using commercially available primers and TaqMan probes (Myo7a and Hprt Life Technologies).
Immunocytochemistry staining: Colonies were fixed at room temperature in 4% paraformaldehyde/PBS for 15-20 min and then washed twice with PBS containing 0.1% BSA. Cells were then permeabilized with 0.25% Triton X-100 in PBS in 4° C. for 30 minutes. Following 2 washes with PBS containing 0.1% BSA, the cells were incubated with blocking solution (Power Block, Biogenex) for 1 h. Diluted primary antibodies (in Power Block solution) was applied for 4 h at room temperature or overnight at 4° C. Primary antibodies used were Myosin VIIA (1:500, Rabbit polyclonal from Proteus Biosciences) and Prestin (1:400, Goat polyclonal from Santa Cruz). After 3 washes for 5 minutes each, secondary antibodies (Alexafluor 594 and 647-conjugated; Invitrogen) were added at 1:500 dilution and incubated at room temperature for 30 minutes. Nuclei were visualized with 4,6-diamidino-2-phenylindole (DAPI, Vector Laboratories). Staining was visualized with inverted fluorescence microscope (EVOS; Advanced Microscopy Group).

[3] = named factor removed, versus EFICVP6

Q: Which “Lgr5-GFP expression, effect of addition” value [1] does the source give for `Nc1ncnc2c1c(I)cn2[C@@H]1O[C@H](CO)[C@@H](O)[C@H]1O` [5IT] here?
A: does not promote the expression of Lgr5-GFP

Q: For `O=C(CCCCCCNC(=O)c1cnc(N(c2ccccc2)c2ccccc2)nc1)NO` [ACY1215], which “use in place of VPA” value [1] is on record?
A: does not work

Q: With `Cc1cc(N2CCOCC2)cc2[nH]c(-c3c(NC[C@@H](O)c4cccc(Cl)c4)cc[nH]c3=O)nc12` [BMS536924] as the compound, how does the “Lgr5-GFP expression, effect of addition” value [1] read?
A: does not promote the expression of Lgr5-GFP

Q: Which “use in place of VPA” value [1] does the source give for `CC(C)(C)OC(=O)Nc1ccc(-c2cc(C(=O)NCCCCCCC(=O)NO)no2)cc1` [CAY10603] here?
A: does not work

Q: For `N.N.[Cl][Pt][Cl]` [Cisplatin], which “high frequency hearing loss (>8 kHZ)” value (patients; human, in vivo) is on record?
A: ≤ 90%

Q: For `Cc1ccc2nc(NC(=O)CSc3nc4c(c(=O)n3-c3ccccc3)SCC4)sc2c1` [IWP-2], which “hair cell generation (Myosin VIIA and Prestin staining)” value ([2]; 10 days of differentiation) is on record?
A: hair cell generation is rarely observed from cultured inner ear progenitor cells

Q: Which “Lgr5-GFP expression, effect of addition” value [1] does the source give for `Cc1cc(NC(=O)c2cccc(NC(=O)/C=C/CN(C)C)c2)ccc1Nc1nccc(-c2cccnc2)n1` [JNK-IN8] here?
A: does not promote the expression of Lgr5-GFP

Q: With `c1ccc2c(-c3cnn4cc(-c5ccc(N6CCNCC6)cc5)cnc34)ccnc2c1` [LDN193189] as the compound, how does the “Lgr5-GFP expression, effect of addition” value [1] read?
A: does not promote the expression of Lgr5-GFP; also recorded: greatly decreased Lgr5-GFP expression

Q: For `O=C(NOC[C@H](O)CO)c1ccc(F)c(F)c1Nc1ccc(I)cc1F` [PD0325901], which “Lgr5-GFP expression, effect of addition” value [1] is on record?
A: does not promote the expression of Lgr5-GFP

Q: With `CNC(=O)c1ccc(C)c(-n2c(C)cc(OCc3ccc(F)cc3F)c(Br)c2=O)c1` [PH797804] as the compound, how does the “Lgr5-GFP expression, effect of addition” value [1] read?
A: does not promote the expression of Lgr5-GFP

Q: Which “Lgr5-GFP expression, effect of addition” value [1] does the source give for `CO[C@@H]1[C@H](N(C)C(=O)c2ccccc2)C[C@H]2O[C@]1(C)n1c3ccccc3c3c4c(c5c6ccccc6n2c5c31)C(=O)NC4` [PKC412] here?
A: does not promote the expression of Lgr5-GFP

Q: With `CCOC(=O)C1=C(N)Oc2ccc(Cl)cc2C1C(C#N)C(=O)OCC` (stereo not shown) [SC79] as the compound, how does the “Lgr5-GFP expression, effect of addition” value [1] read?
A: does not promote the expression of Lgr5-GFP

Q: Which “Lgr5-GFP expression, effect of addition” value [1] does the source give for `C[C@@H]1CCN(C(=O)CC#N)C[C@@H]1N(C)c1ncnc2[nH]ccc12` [Tofacitinib] here?
A: does not promote the expression of Lgr5-GFP

Q: For `CN1CCc2c(c3ccccc3n2Cc2ccc(C(=O)NO)cc2)C1` [Tubastatin A], which “use in place of VPA” value [1] is on record?
A: does not work

Q: Which “Lgr5-GFP expression, effect of addition” value [1] does the source give for `O=c1ncn2nc(Sc3ccc(F)cc3F)ccc2c1-c1c(Cl)cccc1Cl` [VX745] here?
A: does not promote the expression of Lgr5-GFP

Q: Which “effect on differentiation of hair cells” value [2] does the source give for `Cc1cccc(-c2n[nH]cc2-c2ccc3ncccc3n2)n1` [compound 616452, 2-(3-(6-Methylpyridin-2-yl)-1H-pyrazol-4-yl)-1,5 napththyridine] here?
A: inhibit the differentiation of hair cells

Q: And the “passage / extended culture of the cells” value [1]?
A: enables the passage of cultured inner ear progenitor cells; also recorded: enables extended culture of the cells

Q: And the passage of colonies [1]?
A: up to 5 generations

Q: And the “colony size and GFP intensity” value ([1]; added on EFICVP)?
A: increases the intensity of Lgr5-GFP and the size of colonies; also recorded: tend to grow larger and possess brighter GFP expression than that in control conditions

Q: And the “importance of the factor for cell proliferation” value [1]?
A: greater impact on cell proliferation; also recorded: significant reduction in proliferation; also recorded: important to promote cell proliferation

Q: What about the “GFP+ cell number” value [1] of the same compound?
A: 9.8×10^4 cells

Q: What about the “total number of cells” value [1] of the same compound?
A: 1.7×10^5 cells

Q: And the “decrease of GFP+ cell number” value [1, 3]?
A: ~3 fold

Q: And the “decrease of total cell number” value [1, 3]?
A: ~3 fold

Q: What about the “Lgr5-GFP expression, effect of addition” value [1] of the same compound?
A: does not promote the expression of Lgr5-GFP; also recorded: didn't increase Lgr5-GFP expression

Q: And the “cell proliferation, effect of addition” value [1]?
A: promotes the proliferation of Lgr5 inner ear progenitor cells

Q: Which results are given for `[H]/N=C(/N)N[C@H]1[C@H](O)[C@@H](O)[C@H](O[C@@H]2O[C@@H](C)[C@](O)(C=O)[C@H]2O[C@@H]2O[C@@H](CO)[C@H](O)[C@@H](O)[C@@H]2NC)[C@@H](N/C(N)=N\[H])[C@@H]1O` [streptomycin]?
A: incidence of vestibular impairment (patients; 1 gram per day): 25%; patients with some vestibular impairment (patients; 2 grams daily for 60 to 120 days): ~75%

Q: With “EGF: epidermal growth factor (NSDSECPLSHDGYCLHDGVCMYIEALDKYACNCVVGYIGERCQYRDLKWWELR; UniProt P01133 971-1023, looked up)” as the compound, how does the “effect on differentiation of hair cells” value [2] read?
A: inhibit the differentiation of hair cells

Q: What about the “importance of the factor for Lgr5-GFP expression” value [1] of the same compound?
A: less important for GFP expression

Q: What about the “importance of the factor for cell proliferation” value [1] of the same compound?
A: important for cell proliferation; also recorded: greater impact on cell proliferation; also recorded: significant reduction in proliferation; also recorded: important to promote cell proliferation

Q: And the “decrease of GFP+ cell number” value [1, 3]?
A: ~2 fold

Q: And the “decrease of total cell number” value [1, 3]?
A: ~2 fold

Q: For IGF-1: insulin like growth factor 1, which “effect on differentiation of hair cells” value [2] is on record?
A: inhibit the differentiation of hair cells

Q: And the “importance of the factor for Lgr5-GFP expression” value [1]?
A: marginal effect on cell proliferation or GFP maintenance

Q: And the “importance of the factor for cell proliferation” value [1]?
A: marginal effect on cell proliferation or GFP maintenance; also recorded: marginal effect to promote cell proliferation

Q: And the “importance of the factor for Lgr5-GFP expression” value ([1]; listed as IGF)?
A: marginal beneficial effect in promoting cell proliferation and GFP expression

Q: And the “importance of the factor for cell proliferation” value ([1]; listed as IGF)?
A: marginal beneficial effect in promoting cell proliferation and GFP expression

Q: And the “importance of the factor for Lgr5-GFP expression” value ([1]; listed as IGF1)?
A: marginal beneficial effect on cell proliferation and Lgr5 expression

Q: What about the “importance of the factor for cell proliferation” value ([1]; listed as IGF1) of the same compound?
A: marginal beneficial effect on cell proliferation and Lgr5 expression

Q: And the “GFP+ percentage” value [1]?
A: 53%

Q: And the “total number of cells” value [1]?
A: 4.1×10^5 cells

Q: With Laminin 511: added into Matrigel as the compound, how does the “Lgr5-GFP expression, effect of addition” value [1] read?
A: promotes GFP expression

Q: Which “effect on differentiation of hair cells” value [2] does the source give for bFGF: basic fibroblast growth factor here?
A: inhibit the differentiation of hair cells

Q: What about the “importance of the factor for Lgr5-GFP expression” value [1] of the same compound?
A: less important for GFP expression; also recorded: important for GFP expression

Q: And the “importance of the factor for cell proliferation” value [1]?
A: important for cell proliferation; also recorded: greatly impacted cell proliferation; also recorded: greatest effect on proliferation; also recorded: important to promote cell proliferation

Q: And the “GFP+ cell number” value [1]?
A: 1.4×10^4 cells

Q: What about the “GFP+ percentage” value [1] of the same compound?
A: 32%

Q: And the “decrease of GFP+ cell number” value [1, 3]?
A: 20 fold

Q: And the “decrease of GFP+ percentage” value [1, 3]?
A: ~2 fold

Q: What about the “decrease of total cell number” value [1, 3] of the same compound?
A: 10 fold

Q: And the “cell proliferation, effect of addition” value [1]?
A: promotes the proliferation of Lgr5 inner ear progenitor cells; also recorded: increased cell proliferation
